In PubChem BioAssay (NCI):
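Five concentrations, 48 hours, 96-well plates. TGI is the concentration that stops growth completely.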

Columns and labels:
Assay in all cases: NCI tumour cell line growth inhibition, 48 h
[1] = test system: A498 renal
[2] = test system: HL-60(TB) leukemia
[3] = test system: NCI-H522 lung
[4] = test system: OVCAR-5 ovarian
[5] = test system: PC-3 prostate
[6] = test system: RPMI-8226 leukemia
[7] = test system: SK-MEL-5 melanoma
[8] = test system: SN12C renal
[9] = test system: SR leukemia
[10] = test system: U251 CNS

Row | Compound | TGI [1] [µM] | TGI [2] [µM] | TGI [3] [µM] | TGI [4] [µM] | TGI [5] [µM] | TGI [6] [µM] | TGI [7] [µM] | TGI [8] [µM] | TGI [9] [µM] | TGI [10] [µM]
1 | c1csc(-c2csc(-c3cccs3)c2)c1 | > 100 | > 100 | > 100 | > 100 | 82.7 | 57.1 | 38.8 | > 100 | 66.8 | > 100
2 | C1CN(C23OC4(N5CCOCC5)C5C6CC(C7C6C4C72)C53)CCO1 (stereo not drawn) | > 100 | > 100 | > 100 | > 100 | > 100 | > 100 | > 100 | > 100 | > 100 | > 100
3 | CCOC(=O)C1C2C1C1C(C(=O)OCC)C21 (stereo not drawn) | > 100 | > 100 | > 100 | > 100 | > 100 | > 100 | > 100 | > 100 | > 100 | > 100
4 | Cc1cccc(/C=N/NC(=S)NC(C)(C)C)n1 | > 100 | > 100 | > 100 | > 100 | > 100 | > 100 | > 100 | > 100 | > 100 | > 100
5 | COc1ccc(C2=C(N)c3ccccc3C2=O)cc1 | > 100 | > 100 | > 100 | > 100 | > 100 | > 100 | > 100 | > 100 | > 100 | > 100
6 | O=C(O)c1cc2c(cc1CC(Cc1ccccc1)C(=O)O)CCC2 (stereo not drawn) | > 100 | > 100 | > 100 | > 100 | > 100 | > 100 | > 100 | > 100 | > 100 | > 100
7 | Cc1cc2nnn(C3CCCO3)c2cc1C (stereo not drawn) | > 100 | > 100 | > 100 | > 100 | > 100 | – | > 100 | > 100 | > 100 | > 100
8 | NC(=S)N1N=C(c2ccc3c(c2)CCC3)CC1c1ccccc1 (stereo not drawn) | 29.2 | 44.5 | 24.7 | > 100 | 87.8 | 51.7 | 31.3 | > 100 | 95.5 | 63.5
9 | O=C(NC(Cc1c[nH]c2ccccc12)C(=O)O)/C(=C/c1ccccc1)NC(=O)c1ccccc1 (stereo not drawn) | > 100 | > 100 | > 88.7 | > 100 | > 100 | > 100 | > 100 | > 100 | > 100 | > 100
10 | CC(=O)Oc1ccc(-c2c(OC(C)=O)c(OC(C)=O)c(-c3ccc(OC(C)=O)c(OC(C)=O)c3)c(OC(C)=O)c2OC(C)=O)cc1 | > 100 | 43.7 | 18.4 | 25 | 31 | 35.4 | 25.5 | 35.1 | 49.7 | 36.5
11 | Cc1cc(C(C)(C)C)c(OCCCN2CCOCC2)c(C(C)(C)C)c1 | 33.4 | 29 | 33.2 | 33 | 29.9 | 34.8 | 30 | 33 | 47 | 33.2
12 | CN(CCc1ccccn1)C(=S)N/N=C/c1ccccn1 | 1.3 | < 0.01 | 0.29 | 44.6 | > 58.1 | 0.0424 | 0.902 | > 36.2 | < 0.01 | > 94.9
13 | CCCCCCCCCCCOCCC1C(C(C)OCCN2CCCC2)OC2OC(C)(C)OC21 (stereo not drawn) | 28.5 | 3.36 | 1.05 | 8.94 | 6.05 | 3.17 | 3.22 | 7.31 | 1.83 | 5.72
14 | COc1ccc(N2C(=O)CSC2c2cc(OC)c(OC)c(OC)c2)cc1 (stereo not drawn) | 55.3 | 69.8 | 73.6 | 73.9 | > 100 | > 100 | 87.2 | 65.9 | 51.3 | 39
15 | OCC(CO)CC1COc2ccccc2O1 (stereo not drawn) | > 10 | > 10 | > 10 | > 10 | > 10 | > 10 | > 10 | > 10 | > 10 | > 10
16 | C=C1C(=O)O[C@H]2[C@@H](O)[C@H](C)CCC/C(C)=C/CC[C@@]3(C)O[C@@H]3C[C@@H]12 | 25.3 | > 27.4 | 8.28 | 34.8 | > 57.6 | 25.7 | 28.1 | 22.6 | 14.7 | 26.9
17 | CC(C)=CCC/C(C)=C/CCC1(C)C2COC(=O)C21 (stereo not drawn) | > 100 | 46.4 | > 100 | > 100 | > 100 | – | 91.7 | > 100 | > 100 | > 100
